Data from ChEMBL document CHEMBL3860051, “Phosphorothioate analogs of P1,P3-di(nucleosid-5'-yl) triphosphates: Synthesis, assignment of the absolute configuration at P-atoms and P-stereodependent recognition by Fhit hydrolase” (Bioorg Med Chem, 2016).
One block for each compound: values may come before it.

Key:
[1] = Retention time of compound by RP-HPLC analysis; type: physicochemical
[2] = Stability of the compound assessed as snake venom phosphodiesterase-mediated initial rate of hydrolysis per microgram of protein at 50 uM by RP-HPLC analysis; type: ADME; conditions: serpentes
[3] = system: snake venom phosphodiesterase; assay: (§1) Stability of the compound assessed as snake venom phosphodiesterase-mediated compound hydrolysis at 50 uM after 15 mins by RP-HPLC analysis; type: ADME; conditions: serpentes, snake venom phosphodiesterase; read-out: Drug degradation
[4] = Stability of the compound assessed as snake venom phosphodiesterase-mediated initial rate of hydrolysis per microgram of protein at 50 uM after 15 mins by RP-HPLC analysis; type: ADME; conditions: serpentes, 0.25 h
[5] = molecular target: T1, Bis(5'-adenosyl)-triphosphatase (Homo sapiens, UniProt P49789); assay: Stability of the compound assessed as human Fhit expressed in Escherichia coli BL21-mediated compound hydrolysis rate per microgram protein at 50 uM after 5 to 120 mins by RP-HPLC analysis; type: ADME
T1 sequence (P49789 whole entry): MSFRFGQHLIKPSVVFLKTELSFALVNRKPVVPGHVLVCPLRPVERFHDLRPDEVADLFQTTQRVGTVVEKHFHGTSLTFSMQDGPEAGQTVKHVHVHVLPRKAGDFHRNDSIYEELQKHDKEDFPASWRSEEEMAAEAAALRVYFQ

[6] = as §1; type: ADME; conditions: serpentes, 0.25 h, 50 µM
[7] = molecular target: T1, Bis(5'-adenosyl)-triphosphatase; assay: Stability of compound assessed as human Fhit expressed in Escherichia coli BL21-mediated compound initial rate of hydrolysis per microgram of protein at 50 to 200 uM after 5 to 120 mins by RP-HPLC analysis; type: ADME
[8] = system: snake venom phosphodiesterase; assay: Stability of the compound assessed as snake venom phosphodiesterase-mediated compound hydrolysis at 200 uM after 1 hr by RP-HPLC analysis; type: ADME; conditions: serpentes, read-out: Drug degradation
[9] = Stability of the compound assessed as snake venom phosphodiesterase-mediated initial rate of hydrolysis per microgram of protein at 200 uM after 1 hr by RP-HPLC analysis; type: ADME; conditions: serpentes
[10] = Stability of the compound assessed as snake venom phosphodiesterase-mediated initial rate of hydrolysis per microgram of protein at 50 uM after 2 hrs by RP-HPLC analysis; type: ADME; conditions: serpentes
[11] = system: snake venom phosphodiesterase; assay: Stability of the compound assessed as snake venom phosphodiesterase-mediated compound hydrolysis at 50 uM after 2 hrs by RP-HPLC analysis; type: ADME; conditions: serpentes, read-out: Drug degradation
[12] = system: snake venom phosphodiesterase; assay: Stability of the compound assessed as snake venom phosphodiesterase-mediated compound hydrolysis at 50 uM after 30 mins by RP-HPLC analysis; type: ADME; conditions: serpentes, read-out: Drug degradation
[13] = Stability of the compound assessed as snake venom phosphodiesterase-mediated initial rate of hydrolysis per microgram of protein at 50 uM after 30 mins by RP-HPLC analysis; type: ADME; conditions: serpentes, 0.5 h
[14] = Stability of the compound assessed as snake venom phosphodiesterase-mediated initial rate of hydrolysis per microgram of protein at 50 uM after 10 mins by RP-HPLC analysis; type: ADME; conditions: serpentes
[15] = system: snake venom phosphodiesterase; assay: Stability of the compound assessed as snake venom phosphodiesterase-mediated compound hydrolysis at 50 uM after 10 mins by RP-HPLC analysis; type: ADME; conditions: serpentes, read-out: Drug degradation
[16] = system: snake venom phosphodiesterase; assay: Stability of compound assessed as snake venom phosphodiesterase-mediated compound hydrolysis at 50 uM by RP-HPLC analysis; type: ADME; conditions: serpentes, read-out: Drug degradation
[17] = Drug level treated with (R,R)-P1,P3-di(adenosin-5'-yl)P1,P3-bis-thio-triphosphate assessed as snake venom phosphodiesterase-mediated compound formation at 50 uM after 10 mins by RP-HPLC analysis; type: ADME; conditions: serpentes
[18] = Stability of the compound assessed as snake venom phosphodiesterase-mediated initial rate of hydrolysis per microgram of protein at 50 uM after 1 hr by RP-HPLC analysis; type: ADME; conditions: serpentes
[19] = system: snake venom phosphodiesterase; assay: Stability of the compound assessed as snake venom phosphodiesterase-mediated compound hydrolysis at 50 uM after 1 hr by RP-HPLC analysis; type: ADME; conditions: serpentes, read-out: Drug degradation
[20] = Drug level treated with 1-O-[(guanosin-5'-yl)thiophosphyl]-2-S-[(guanosin-5'-yl)dithiophosphyl]-ethane assessed as snake venom phosphodiesterase-mediated compound formation at 50 uM after 15 mins by RP-HPLC analysis; type: ADME; conditions: serpentes, 0.25 h
[21] = Drug level treated with (R,S)-P1,P3-di(adenosin-5'-yl)P1,P3- bis-thio-triphosphate assessed as snake venom phosphodiesterase-mediated compound formation at 50 uM after 30 mins by RP-HPLC analysis; type: ADME; conditions: serpentes, 0.5 h
[22] = Drug level treated with (S,S)-P1,P3-di(adenosin-5'-yl)P1,P3- bis-thio-triphosphate assessed as snake venom phosphodiesterase-mediated compound formation at 50 uM after 2 hrs by RP-HPLC analysis; type: ADME; conditions: serpentes

Structure (SMILES): Nc1ncnc2c1ncn2[C@@H]1O[C@H](COP(O)(O)=S)[C@@H](O)[C@H]1O
Retention_time [1]: 13.8 min

Structure (SMILES): Nc1ncnc2c1ncn2[C@@H]1O[C@H](COP(=O)(O)OP(=O)(O)O)[C@@H](O)[C@H]1O [ADENOSINE DIPHOSPHATE]
Stability [2]: Stable

Structure (SMILES): Nc1nc2c(ncn2[C@@H]2O[C@H](COP(=O)(S)OCCSP(=O)(S)OC[C@H]3O[C@@H](n4cnc5c(=O)[nH]c(N)nc54)[C@H](O)[C@@H]3O)[C@@H](O)[C@H]2O)c(=O)[nH]1 (stereo in doubt; 9A)
metabolised at 0.25 h, 50 µM [3]: 70% | Drug degradation [4]: 0.6944 nmol/min | Drug degradation [5]: 3.9 pmol/min

Structure (SMILES): Nc1nc2c(ncn2[C@@H]2O[C@H](COP(=O)(S)OCCSP(=O)(S)OC[C@H]3O[C@@H](n4cnc5c(=O)[nH]c(N)nc54)[C@H](O)[C@@H]3O)[C@@H](O)[C@H]2O)c(=O)[nH]1 (stereo in doubt; 9B)
Drug degradation [6]: 56% | Drug degradation [4]: 0.5539 nmol/min | Drug degradation [5]: 2 pmol/min

Drug degradation [5]: 9810 pmol/min
Structure (SMILES): Nc1ncnc2c1ncn2[C@@H]1O[C@H](COP(=O)(O)OP(=O)(O)OP(=O)(O)OC[C@H]2O[C@@H](n3cnc4c(N)ncnc43)[C@H](O)[C@@H]2O)[C@@H](O)[C@H]1O

Structure (SMILES): NC(=O)c1ncn([C@@H]2O[C@H](CO[P@](=O)(S)OP(=O)(O)O[P@](=O)(S)OC[C@H]3O[C@@H](n4cnc(C(N)=O)n4)[C@H](O)[C@@H]3O)[C@@H](O)[C@H]2O)n1
Stability [7]: Stable | metabolised at 1 h, 200 µM [8]: 41% | Drug degradation [9]: 0.0253 nmol/min

Structure (SMILES): Nc1nc2c(ncn2[C@@H]2O[C@H](CO[P@@](=O)(S)OP(=O)(O)O)[C@@H](O)[C@H]2O)c(=O)[nH]1
Retention_time [1]: 16.9 min

Structure (SMILES): Nc1ncnc2c1ncn2[C@@H]1O[C@H](CO[P@](=O)(S)OP(=O)(O)O[P@@](=O)(S)OC[C@H]2O[C@@H](n3cnc4c(N)ncnc43)[C@H](O)[C@@H]2O)[C@@H](O)[C@H]1O
Drug degradation [10]: 0.0012 nmol/min | Drug degradation [5]: 5.7 pmol/min | metabolised at 2 h, 50 µM [11]: 52%

Structure (SMILES): Nc1ncnc2c1ncn2[C@@H]1O[C@H](CO[P@](=O)(S)OP(=O)(O)O[P@](=O)(S)OC[C@H]2O[C@@H](n3cnc4c(N)ncnc43)[C@H](O)[C@@H]2O)[C@@H](O)[C@H]1O
metabolised at 0.5 h, 50 µM [12]: 88% | Drug degradation [5]: 27.8 pmol/min | Drug degradation [13]: 0.0368 nmol/min

Structure (SMILES): NC(=O)c1ncn([C@@H]2O[C@H](CO[P@@](=O)(S)OP(=O)(O)O)[C@@H](O)[C@H]2O)n1
Retention_time [1]: 11.8 min

Structure (SMILES): Nc1nc2c(ncn2[C@@H]2O[C@H](CO[P@](=O)(S)OP(=O)(O)O)[C@@H](O)[C@H]2O)c(=O)[nH]1
Retention_time [1]: 14.9 min

Structure (SMILES): NC(=O)c1ncn([C@@H]2O[C@H](CO[P@@](=O)(S)OP(=O)(O)O[P@](=O)(S)OC[C@H]3O[C@@H](n4cnc(C(N)=O)n4)[C@H](O)[C@@H]3O)[C@@H](O)[C@H]2O)n1
Stability [7]: Stable | metabolised at 1 h, 200 µM [8]: 80% | Drug degradation [9]: 0.0538 nmol/min

Structure (SMILES): Nc1ncnc2c1ncn2[C@@H]1O[C@H](CO[P@@](=O)(S)OP(=O)(O)O[P@](=O)(S)OC[C@H]2O[C@@H](n3cnc4c(N)ncnc43)[C@H](O)[C@@H]2O)[C@@H](O)[C@H]1O
Drug degradation [14]: 0.1349 nmol/min | Drug degradation [5]: 5.8 pmol/min | metabolised at 10 min, 50 µM [15]: 88%

Structure (SMILES): Nc1ncnc2c1ncn2[C@@H]1O[C@H](CO[P@@](=O)(S)OP(=O)(O)O)[C@@H](O)[C@H]1O
metabolised at 50 µM [16]: 10% | Retention_time [1]: 18.9 min | Drug degradation [2]: 2.9 ×10⁻³ nmol/min | Drug metabolism [17]: Metabolite_Detected

Structure (SMILES): Nc1nc2c(ncn2[C@@H]2O[C@H](CO[P@@](=O)(S)OP(=O)(O)O[P@](=O)(S)OC[C@H]3O[C@@H](n4cnc5c(=O)[nH]c(N)nc54)[C@H](O)[C@@H]3O)[C@@H](O)[C@H]2O)c(=O)[nH]1
Drug degradation [5]: 0.7 pmol/min | Drug degradation [18]: 0.1212 nmol/min | metabolised at 1 h, 50 µM [19]: 95%

Structure (SMILES): Nc1nc2c(ncn2[C@@H]2O[C@H](COP(O)(O)=S)[C@@H](O)[C@H]2O)c(=O)[nH]1
Retention_time [1]: 11.1 min | Drug metabolism [20]: Metabolite_Detected

Structure (SMILES): NC(=O)c1ncn([C@@H]2O[C@H](COP(=O)(O)S)[C@@H](O)[C@H]2O)n1 (some centres undefined)
Retention_time [1]: 10.6 min

Structure (SMILES): NC(=O)c1ncn([C@@H]2O[C@H](CO[P@](=O)(S)OP(=O)(O)O)[C@@H](O)[C@H]2O)n1
Retention_time [1]: 10.9 min

Structure (SMILES): Nc1nc2c(ncn2[C@@H]2O[C@H](COP(=O)(S)OP(=O)(O)OP(=O)(S)OC[C@H]3O[C@@H](n4cnc5c(=O)[nH]c(N)nc54)[C@H](O)[C@@H]3O)[C@@H](O)[C@H]2O)c(=O)[nH]1 (mixture of isomers)
Drug degradation [5]: 5.9 pmol/min | Drug degradation [18]: 0.0275 nmol/min | metabolised at 1 h, 50 µM [19]: 50%

Structure (SMILES): NC(=O)c1ncn([C@@H]2O[C@H](CO[P@](=O)(S)OP(=O)(O)O[P@@](=O)(S)OC[C@H]3O[C@@H](n4cnc(C(N)=O)n4)[C@H](O)[C@@H]3O)[C@@H](O)[C@H]2O)n1
Stability [7]: Stable | metabolised at 1 h, 200 µM [8]: 10% | Drug degradation [9]: 0.0023 nmol/min

Structure (SMILES): Nc1ncnc2c1ncn2[C@@H]1O[C@H](CO[P@](=O)(S)OP(=O)(O)O)[C@@H](O)[C@H]1O
Drug metabolism [21]: Metabolite_Detected | metabolised at 50 µM [16]: 10% | Retention_time [1]: 16.8 min | Drug degradation [2]: 1.1 ×10⁻³ nmol/min | Drug metabolism [22]: Metabolite_Detected
